Experimental data taken from ChEMBL document CHEMBL1275605, “Rapid assessment of antibacterial activity against Mycobacterium ulcerans by using recombinant luminescent strains” (2010).
In brackets after ≈: the same amount, converted by molar mass. Activity calls are given as the source filed them. The rule behind the calls is not given here.

Key:
Mycobacterium ulcerans [1] = test: Antimicrobial activity against Mycobacterium ulcerans 1059 harboring pTY60K containing pMH94 carrying the luxAB gene under the hsp60 promoter after 14 days determined according to CFU count by bioluminescence method; assay type: functional; conditions: Mycobacterium ulcerans, 1059, 336 h
Mycobacterium ulcerans [2] = test: Antimicrobial activity against Mycobacterium ulcerans ATCC 19423 harboring pTY60K containing pMH94 carrying the luxAB gene under the hsp60 promoter after 7 days determined according to CFU count by bioluminescence method; assay type: functional; conditions: ATCC 19423, 168 h
Mycobacterium ulcerans [3] = test: Antimicrobial activity against Mycobacterium ulcerans 1059 harboring pTY60K carrying the luxAB gene under the hsp60 promoter agar dilution method; assay type: functional
Mycobacterium ulcerans [4] = test: Antimicrobial activity against Mycobacterium ulcerans 1059 agar dilution method; assay type: functional
Mycobacterium ulcerans [5] = test: Antimicrobial activity against Mycobacterium ulcerans 1059 harboring pTY60K containing pMH94 carrying the luxAB gene under the hsp60 promoter after 14 days determined according to RLU count by real-time luminescence method; assay type: functional; conditions: Mycobacterium ulcerans, 1059, 336 h
Mycobacterium ulcerans [6] = test: Antimicrobial activity against Mycobacterium ulcerans ATCC 19423 harboring pTY60K containing pMH94 carrying the luxAB gene under the hsp60 promoter after 7 days determined according to RLU count by real-time luminescence method; assay type: functional; conditions: ATCC 19423, 168 h
Mycobacterium ulcerans [7] = test: Antimicrobial activity against Mycobacterium ulcerans ATCC 19423 harboring pTY60H assessed as 4-fold increase in reserpine-mediated inhibition of bacterial growth after 14 days; assay type: functional, organism-based
Mycobacterium ulcerans [8] = test: Antimicrobial activity against Mycobacterium ulcerans ATCC 19423 agar dilution method; assay type: functional
Mycobacterium ulcerans [9] = test: Antimicrobial activity against Mycobacterium ulcerans ATCC 19423 harboring pTY60H containing pCK0601 carrying the luxAB gene under the hsp60 promoter after 14 days determined according to CFU counts by bioluminescence method; assay type: functional; conditions: ATCC 19423, 336 h
Mycobacterium ulcerans [10] = test: Antimicrobial activity against Mycobacterium ulcerans ATCC 19423 harboring pTY60H containing pCK0601 carrying the luxAB gene under the hsp60 promoter after 14 days determined according to RLU count by real-time luminescence method; assay type: functional; conditions: ATCC 19423, 336 h
Mycobacterium ulcerans [11] = test: Antimicrobial activity against Mycobacterium ulcerans ATCC 19423 harboring pTY60H carrying the luxAB gene under the hsp60 promoter determined after 14 days in presence of 2.5 ug/ml ATP-cassette transporter inhibitor reserpine; assay type: functional, organism-based
Mycobacterium ulcerans [12] = test: Antimicrobial activity against Mycobacterium ulcerans ATCC 19423 harboring pTY60H assessed as 2-fold increase in reserpine-mediated inhibition of bacterial growth after 14 days; assay type: functional, organism-based
Mycobacterium ulcerans [13] = test: Antimicrobial activity against Mycobacterium ulcerans ATCC 19423 harboring pTY60H carrying the luxAB gene under the hsp60 promoter agar dilution method; assay type: functional
Mycobacterium ulcerans [14] = test: Antimicrobial activity against Mycobacterium ulcerans Cu001 agar dilution method; assay type: functional

Row | SMILES | MIC (Mycobacterium ulcerans [1]) | MIC (Mycobacterium ulcerans [2]) | MIC (Mycobacterium ulcerans [3]) | MIC (Mycobacterium ulcerans [4]) | MIC (Mycobacterium ulcerans [5]) | MIC (Mycobacterium ulcerans [6]) | Activity (Mycobacterium ulcerans [7]) | MIC (Mycobacterium ulcerans [8]) | MIC (Mycobacterium ulcerans [9]) | MIC (Mycobacterium ulcerans [10]) | Activity (Mycobacterium ulcerans [11]) | Activity (Mycobacterium ulcerans [12]) | MIC (Mycobacterium ulcerans [13]) | MIC (Mycobacterium ulcerans [14])
1 | CC(=O)NC[C@H]1CN(c2ccc(N3CCOCC3)c(F)c2)C(=O)O1 [LINEZOLID] | 4 µg/mL (≈ 11.9 µM) | 1 µg/mL (≈ 2.96 µM) | 1 µg/mL (≈ 2.96 µM) | 1 µg/mL (≈ 2.96 µM) | 2 µg/mL (≈ 5.93 µM) | 1 µg/mL (≈ 2.96 µM) |  |  |  |  |  |  |  | 
2 | CC[C@H]1OC(=O)[C@H](C)[C@@H](O[C@H]2C[C@@](C)(OC)[C@@H](O)[C@H](C)O2)[C@H](C)[C@@H](O[C@@H]2O[C@H](C)C[C@H](N(C)C)[C@H]2O)[C@](C)(O)C[C@@H](C)C(=O)[C@H](C)[C@@H](O)[C@]1(C)O [ERYTHROMYCIN] |  |  |  |  |  |  | Active | > 16 µg/mL | 1 µg/mL (≈ 1.36 µM) | 0.5 µg/mL (≈ 0.681 µM) | Active |  |  | 
3 | CN(C)[C@@H]1C(O)=C(C(N)=O)C(=O)[C@@]2(O)C(O)=C3C(=O)c4c(O)cccc4[C@@](C)(O)[C@H]3C[C@@H]12 [TETRACYCLINE] |  |  |  |  |  |  |  | 10 µg/mL (≈ 22.5 µM) | 2.5 µg/mL (≈ 5.63 µM) | 2.5 µg/mL (≈ 5.63 µM) | Active | Active | 5 µg/mL (≈ 11.3 µM) | 
4 | CN[C@@H]1[C@H](O[C@H]2[C@H](O[C@H]3[C@H](O)[C@@H](O)[C@H](N=C(N)N)[C@@H](O)[C@@H]3N=C(N)N)O[C@@H](C)[C@]2(O)C=O)O[C@@H](CO)[C@H](O)[C@H]1O [STREPTOMYCIN] | 0.13 µg/mL (≈ 0.224 µM) | 0.25 µg/mL (≈ 0.43 µM) | 0.25 µg/mL (≈ 0.43 µM) | 0.25 µg/mL (≈ 0.43 µM) | 0.13 µg/mL (≈ 0.224 µM) | 0.5 µg/mL (≈ 0.86 µM) |  | 0.25 µg/mL (≈ 0.43 µM) | 1 µg/mL (≈ 1.72 µM) | 1 µg/mL (≈ 1.72 µM) |  |  | 0.25 µg/mL (≈ 0.43 µM) | 
5 | NNC(=O)c1ccncc1 [ISONIAZID] | > 40 µg/mL | > 40 µg/mL |  | > 40 µg/mL | > 40 µg/mL | > 40 µg/mL |  |  |  |  |  |  |  | 
6 | NC[C@H]1O[C@H](O[C@H]2[C@H](O)[C@@H](O[C@H]3O[C@H](CO)[C@@H](O)[C@H](N)[C@H]3O)[C@H](N)C[C@@H]2N)[C@H](O)[C@@H](O)[C@@H]1O [KANAMYCIN] |  |  |  |  |  |  |  | ≤ 5 µg/mL |  |  |  |  |  | ≤ 5 µg/mL
7 | CO[C@H]1/C=C/O[C@@]2(C)Oc3c(C)c(O)c4c(O)c(c(/C=N/N5CCN(C)CC5)c(O)c4c3C2=O)NC(=O)/C(C)=C\C=C\[C@H](C)[C@H](O)[C@@H](C)[C@@H](O)[C@@H](C)[C@H](OC(C)=O)[C@@H]1C [RIFAMPIN] | 0.03 µg/mL (≈ 0.0365 µM) | ≤ 0.016 µg/mL | 0.5 µg/mL (≈ 0.608 µM) | 0.13 µg/mL (≈ 0.158 µM) | 0.06 µg/mL (≈ 0.0729 µM) | 0.03 µg/mL (≈ 0.0365 µM) |  | 0.5 µg/mL (≈ 0.608 µM) | ≤ 0.03 µg/mL | ≤ 0.03 µg/mL |  |  | 0.5 µg/mL (≈ 0.608 µM) | 
8 | CC[C@H]1OC(=O)[C@H](C)[C@@H](O[C@H]2C[C@@](C)(OC)[C@@H](O)[C@H](C)O2)[C@H](C)[C@@H](O[C@@H]2O[C@H](C)C[C@H](N(C)C)[C@H]2O)[C@](C)(OC)C[C@@H](C)C(=O)[C@H](C)[C@@H](O)[C@]1(C)O [CLARITHROMYCIN] | 0.25 µg/mL (≈ 0.334 µM) | 0.03 µg/mL (≈ 0.0401 µM) | 0.25 µg/mL (≈ 0.334 µM) | 0.25 µg/mL (≈ 0.334 µM) | 0.13 µg/mL (≈ 0.174 µM) | 0.13 µg/mL (≈ 0.174 µM) |  |  |  |  |  |  |  | 
9 | CN[C@@H]1C[C@H](N)[C@@H](O)[C@H](O[C@H]2O[C@H](CO)[C@H](O)[C@@H]3O[C@@]4(O[C@@H]23)O[C@H]([C@H](N)CO)[C@H](O)[C@H](O)[C@H]4O)[C@H]1O [HYGROMYCIN] |  |  |  |  |  |  |  | ≤ 12.5 µg/mL |  |  |  |  |  | ≤ 12.5 µg/mL
10 | COc1c(N2C[C@@H]3CCCN[C@@H]3C2)c(F)cc2c(=O)c(C(=O)O)cn(C3CC3)c12 [MOXIFLOXACIN] | > 0.25 µg/mL | 0.03 µg/mL (≈ 0.0747 µM) |  | > 0.5 µg/mL | > 0.25 µg/mL | 0.03 µg/mL (≈ 0.0747 µM) |  | ≤ 0.016 µg/mL | ≤ 0.03 µg/mL | ≤ 0.03 µg/mL |  |  | 0.03 µg/mL (≈ 0.0747 µM) | 
